Key:
Type in all cases: in vivo, Kunming mice
IL-1β = IL-1β mRNA in lung tissue by qRT-PCR; conditions: Gen-17 (12.5, 25, 50 mg/kg gavage) compared with LPS group (P<0.001)
Protocol: (§1) A total of 144 SPF-grade healthy Kunming mice, aged 5-7 weeks and weighing 18-22 g, are weighed and randomly allocated into six experimental groups: control group (NS), model group (LPS), dexamethasone group (DEX, […] per kilogram abbreviated as mg/kg), genipin beta-methyl derivative low-dose group (12.5 mg/kg), genipin beta-methyl derivative medium-dose group (25 mg/kg), and genipin beta-methyl derivative high-dose group (50 mg/kg), 24 animals per group, in which 12 animals are used to take lung tissue for the detection of other indicators, and another 12 animals are used to collect BALF. […]
(§2) Samples are collected 24 hours after the animal model is established. […] Lung tissues are collected and the whole lung wet weight is measured. […] After tidying, the lungs are photographed, excess tissues such as the trachea are cleared away, and the wet weight of the whole lung is measured to calculate the lung index. • (3) The upper lobe of the left lung is fixed in 4% neutral paraformaldehyde, fixed for 24 hours, paraffin-embedded and sectioned for HE staining. • (4) The remaining lung tissues are put into centrifugal tubes separately, quickly frozen in liquid nitrogen, and then stored at −80° C. after the experiment, which is used for the detection of MDA, SOD, western blotting (WB) and reverse transcription polymerase chain reaction (RT-PCR). […]

Keap1 = Keap1 gene expression in lung tissue by qRT-PCR
Protocol: as §1, §2

LPS-induced ALI mice = assay: Lung index (lung wet weight/body weight), LPS-induced ALI mice
Protocol: A total of 144 SPF-grade healthy Kunming mice, aged 5-7 weeks and weighing 18-22 g, are weighed and randomly allocated into six experimental groups: control group (NS), model group (LPS), dexamethasone group (DEX, […] per kilogram abbreviated as mg/kg), genipin beta-methyl derivative low-dose group (12.5 mg/kg), genipin beta-methyl derivative medium-dose group (25 mg/kg), and genipin beta-methyl derivative high-dose group (50 mg/kg), 24 animals per group, in which 12 animals are used to take lung tissue for the detection of other indicators, and another 12 animals are used to collect BALF.
All mice are gavaged with a same volume of 0.9% normal saline once a day in the NS group and the LPS group, DEX solution (0.39 mg/kg) is gavaged once a day in the DEX group, low-dose Gen-17 solution (12.5 mg/kg) is gavaged once a day in the medium-dose Gen-17 group, medium-dose Gen-17 solution (25 mg/kg) is gavaged once a day in the high-dose Gen-17 group, and high-dose Gen-17 solution (50 mg/kg) is gavaged once a day in the high-dose Gen-17 group. The dosage is converted according to the weight of the mice, and the gavage volume is 20 milliliters per kilogram (mL/kg), and the gavage is continued for 3 days. One hour after the gavage on the third day, the ALI model is established by tracheal instillation of LPS solution. The specific experimental procedures are as follows. • (1) Before the operation, the mice are anesthetized by intraperitoneal injection of 1% sodium pentobarbital (30 mg/kg) according to their body weight. • (2) Limbs of anesthetized mice are fixed with rubber bands, teeth are wired with thin threads, and neck skin is disinfected with 75% alcohol. • (3) A subcutaneous tissue is separated along a longitudinal incision in a middle of the mouse neck until a cartilage ring appeared in an exposed trachea. • (4) A microinjector is inserted into the trachea in parallel towards a proximal end for about 1 centimeter (cm). Sterile NS is slowly dripped into the trachea of the control group, and LPS is dripped into the trachea of the other groups. • (5) After pulling out the microinjector, the mice are upright immediately, rotated and shaken evenly for 2 minutes (min), then the neck wound is sutured, and the state of the mice is observed. After the mice are awake, they are raised as usual. 2.3 Treatment of Experimental Animals and Collection of Lung Tissue Specimens
Samples are collected 24 hours after the animal model is established. The mice are weighed and 12 mice in each group are sacrificed. Lung tissues are collected and the whole lung wet weight is measured. The lung tissues are packaged for hematoxylin and eosin (HE) staining, MDA and SOD content determination, gene and protein detection. […] After tidying, the lungs are photographed, excess tissues such as the trachea are cleared away, and the wet weight of the whole lung is measured to calculate the lung index. • (3) The upper lobe of the left lung is fixed in 4% neutral paraformaldehyde, fixed for 24 hours, paraffin-embedded and sectioned for HE staining. • (4) The remaining lung tissues are put into centrifugal tubes separately, quickly frozen in liquid nitrogen, and then stored at −80° C. after the experiment, which is used for the detection of MDA, SOD, western blotting (WB) and reverse transcription polymerase chain reaction (RT-PCR). […]

[1] = system: ERK phosphorylated protein; assay: ERK phosphorylated protein in lung tissue by WB
Protocol: as §1, §2

HO-1 = HO-1 protein in lung tissue by WB; conditions: Gen-17 12.5, 25, 50 mg/kg gavage, ALI mice
Protocol: as §1, §2

Nrf2 = Nrf2 protein in lung tissue by WB
Protocol: (§3) The dosage is converted according to the weight of the mice, and the gavage volume is 20 milliliters per kilogram (mL/kg), and the gavage is continued for 3 days. One hour after the gavage on the third day, the ALI model is established by tracheal instillation of LPS solution. […] After the mice are awake, they are raised as usual. 2.3 Treatment of Experimental Animals and Collection of Lung Tissue Specimens
(§4) Samples are collected 24 hours after the animal model is established. The mice are weighed and 12 mice in each group are sacrificed. Lung tissues are collected and the whole lung wet weight is measured. […] After tidying, the lungs are photographed, excess tissues such as the trachea are cleared away, and the wet weight of the whole lung is measured to calculate the lung index. • (3) The upper lobe of the left lung is fixed in 4% neutral paraformaldehyde, fixed for 24 hours, paraffin-embedded and sectioned for HE staining. • (4) The remaining lung tissues are put into centrifugal tubes separately, quickly frozen in liquid nitrogen, and then stored at −80° C. after the experiment, which is used for the detection of MDA, SOD, western blotting (WB) and reverse transcription polymerase chain reaction (RT-PCR). […]
The lung tissue is taken out from −80° C., and its weight is accurately measured. […]

[2] = system: JNK phosphorylated protein; assay: JNK phosphorylated protein in lung tissue by WB
Protocol: as §1, §2

SOD = SOD activity in lung tissue; conditions: compared with LPS group
Protocol: as §3, §4
The lung tissue is taken out from −80° C., and its weight is accurately measured.

[3] = Gen-17 groups (12.5, 25, 50 mg/kg gavage) compared with NS group
[4] = Gen-17 12.5, 25, 50 mg/kg gavage, ALI mice
[5] = after drug treatment, compared with LPS group
[6] = low-dose Gen-17 12.5 mg/kg gavage, compared with DEX group

Question: With `COC(=O)C1=CO[C@@H](OC)[C@@H]2C(COC(=O)c3cccc(Br)c3)=CC[C@H]12` [Gen-17, genipin beta-methyl derivative] as the compound, how does the “mRNA expression of IL-1β in lung tissue” value (IL-1β) read?
Answer: Its value is “significantly reduce the expression”.

Question: And the “expression of Keap1 gene in lung tissue” value (Keap1; Gen-17 groups (12.5, 25, 50 mg/kg gavage) compared with DEX group (P<0.001))?
Answer: The value was “significantly increased”.

Question: And the “expression of Keap1 gene in lung tissue” value (Keap1; [3])?
Answer: Its value is “significantly increased (P<0.001)”.

Question: And the “degree of pulmonary edema (lung index), overall result” value (LPS-induced ALI mice; [4])?
Answer: The value was “reduce the degree of pulmonary edema in ALI mice to varying degrees”.

Question: What about the lung index (LPS-induced ALI mice; [3]) of the same compound?
Answer: The lung index was “statistically significant (P<0.05)”.

Question: And the lung index (LPS-induced ALI mice; high-dose Gen-17 50 mg/kg gavage, compared with LPS group)?
Answer: The lung index was “statistically significant (P<0.01)”.

Question: And the lung index (LPS-induced ALI mice; low-dose Gen-17 12.5 mg/kg gavage, compared with DEX group (P<0.05))?
Answer: Its lung index is “increases most significantly”.

Question: And the lung index (LPS-induced ALI mice; medium-dose Gen-17 25 mg/kg gavage, compared with LPS group)?
Answer: Its lung index is “statistically significant (P<0.01)”.

Question: And the “expression of ERK phosphorylated protein in lung tissue” value [1, 5]?
Answer: Its value is “down-regulate the expression of p38, ERK and JNK proteins”.

Question: And the “expression of ERK phosphorylated protein in lung tissue” value [1, 6]?
Answer: Its value is “statistically significant (P<0.05)”.

Question: What about the “expression of HO-1 protein in lung tissue, overall result” value (HO-1) of the same compound?
Answer: Its value is “upregulate the expression of Nrf2 and HO-1 protein”.

Question: And the “expression of Nrf2 protein in lung tissue, overall result” value (Nrf2; [4])?
Answer: The value was “upregulate the expression of Nrf2 and HO-1 protein”.

Question: What about the “expression of Nrf2 protein in lung tissue (increase)” value (Nrf2; medium-dose Gen-17 25 mg/kg gavage, compared with LPS group (P<0.05)) of the same compound?
Answer: Its value is “statistically significant”.

Question: What about the “expression of JNK phosphorylated protein in lung tissue” value [2, 5] of the same compound?
Answer: The value was “down-regulate the expression of p38, ERK and JNK proteins”.

Question: And the “expression of JNK phosphorylated protein in lung tissue” value [2, 6]?
Answer: The value was “statistically significant (P<0.05)”.

Question: What about the “SOD activity in lung tissue” value (SOD; after drug treatment) of the same compound?
Answer: Its value is “significantly increase the SOD activity”.

Question: What about the “SOD activity in lung tissue (increase)” value (SOD; high-dose Gen-17 50 mg/kg gavage) of the same compound?
Answer: The value was “statistical significance (P<0.05)”.

Source: patent US12458621B1, “Application of genipin beta-methyl derivative gen-17 in preparation of drug for prevention and treatment of acute severe pneumonia” (KUNMING MEDICAL UNIVERSITY, priority 2024, dated 2025)
